In PMC8134483 (Scientific Reports, 2021):
“Also recorded” adds a separate entry of the source. Read-outs that look alike come from different tables or passages of the source.

How the values were obtained:
hCB2R [1] = molecular target: T1, hCB2R (Homo sapiens, UniProt P34972); assay: CB2R bias analysis (operational model, cAMP inhibition vs βarrestin2); format: cell-based; settings: CP55,940 as reference agonist; >0 cAMP bias, <0 βarrestin2 bias
T1 construct: host or cells: CHO-K1 (PathHunter)
Experimental: Estimates of Ki, EC50, Emin, and Emax were determined using non-linear regression with variable slope (four parameters) (GraphPad, Prism, v. 8.0). […] One-way analysis of variance (ANOVA), followed by Tukey’s post-hoc test, was used for statistical analyses (p < 0.05 determined to be significant); and Bartlett’s test was used to confirm homogeneity of variance (GraphPad).

hCB2R [2] = molecular target: T1, hCB2R; assay: HitHunter inhibition of FSK-stimulated cAMP, CB2R; format: cell-based
hCB1R [3] = molecular target: T2, hCB1R (Homo sapiens, UniProt P21554); assay: biochemical; format: binding; settings: for CB1R [^3H]CP55,940 Emin: bottom of the concentration–response curve, mean ± SEM; for CB1R versus CB2R selectivity, receptor affinity: CB1R vs CB2R [^3H]CP55,940 binding
T2 construct: expressed in transfected cells; host or cells: CHO-K1

hCB2R [4] = molecular target: T1, hCB2R; assay: PathHunter βarrestin2 recruitment, CB2R; format: cell-based; settings: for βarrestin2 recruitment to CB2R, activity in words: relative to CP55,940
hCB2R [5] = molecular target: T1, hCB2R; assay: [^3H]CP55,940 competition (radioligand displacement) binding to CB2R; settings: for CB2R [^3H]CP55,940 Emin: bottom of the concentration–response curve, mean ± SEM
hCB1R [6] = molecular target: T2, hCB1R; assay: cell-based; format: cell-based; settings: for EC50: CHO hCB1R, 10 µM FSK, 90 min, value with 95% CI, read-out: CB1R cAMP Inhibition EC50; for Emax: read-out: CB1R cAMP Inhibition Emax; for CB1R-dependent inhibition of FSK-stimulated cAMP, activity in words: relative to CP55940
hCB1R [7] = molecular target: T2, hCB1R; assay: cell-based; format: cell-based; settings: for CB1R versus CB2R selectivity, βarrestin2 recruitment: CB1R vs CB2R; for EC50: CHO hCB1R, 90 min, value with 95% CI, read-out: CB1R βarrestin2 recruitment EC50; for Emax: read-out: CB1R βarrestin2 recruitment Emax; for βarrestin2 recruitment to CB1R, activity in words: relative to CP55940

T2 sequence (P21554 whole entry): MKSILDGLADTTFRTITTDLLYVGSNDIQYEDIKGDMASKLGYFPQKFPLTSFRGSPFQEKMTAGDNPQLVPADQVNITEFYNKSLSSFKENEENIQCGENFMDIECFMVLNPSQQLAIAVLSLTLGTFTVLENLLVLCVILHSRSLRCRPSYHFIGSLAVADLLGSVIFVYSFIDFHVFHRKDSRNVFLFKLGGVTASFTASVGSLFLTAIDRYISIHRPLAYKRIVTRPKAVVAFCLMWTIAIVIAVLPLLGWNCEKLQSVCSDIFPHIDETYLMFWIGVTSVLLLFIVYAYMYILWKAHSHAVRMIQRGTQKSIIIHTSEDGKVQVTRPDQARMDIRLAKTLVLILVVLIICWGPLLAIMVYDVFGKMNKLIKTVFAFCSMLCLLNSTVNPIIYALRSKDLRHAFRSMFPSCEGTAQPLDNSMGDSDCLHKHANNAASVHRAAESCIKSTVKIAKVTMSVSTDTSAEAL
T1 sequence (P34972 whole entry): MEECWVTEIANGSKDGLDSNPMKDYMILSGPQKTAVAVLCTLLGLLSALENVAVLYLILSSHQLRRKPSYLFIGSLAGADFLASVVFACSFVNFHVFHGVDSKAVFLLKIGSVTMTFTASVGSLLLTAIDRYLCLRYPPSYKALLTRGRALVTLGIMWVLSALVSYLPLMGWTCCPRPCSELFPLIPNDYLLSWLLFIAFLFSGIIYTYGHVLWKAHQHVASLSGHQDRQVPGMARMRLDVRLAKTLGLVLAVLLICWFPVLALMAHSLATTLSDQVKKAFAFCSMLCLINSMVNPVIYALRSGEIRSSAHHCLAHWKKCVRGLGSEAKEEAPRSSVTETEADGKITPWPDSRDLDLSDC

Compound	CB2R bias between cAMP inhibition and βarrestin2 recruitment, ∆∆LogR (cAMP—βarr2), in words (hCB2R [1])	EC50 (hCB2R [2])	Emax (hCB2R [2])	Ki (hCB1R [3])	CB1R [^3H]CP55,940 Emin (hCB1R [3])	EC50 (hCB2R [4])	Emax (hCB2R [4])	βarrestin2 recruitment to CB2R, activity in words (hCB2R [4])	Affinity for CB2R compared with CP55,940, in words (hCB2R [5])	Ki (hCB2R [5])	CB2R [^3H]CP55,940 Emin (hCB2R [5])	EC50 (hCB1R [6])	Emax (hCB1R [6])	CB1R versus CB2R selectivity, βarrestin2 recruitment (hCB1R [7])	EC50 (hCB1R [7])	Emax (hCB1R [7])	CB1R versus CB2R selectivity, receptor affinity (hCB1R [3])	CB1R versus CB2R selectivity, cAMP inhibition potency (hCB1R [6]; CB1R vs CB2R)	βarrestin2 recruitment to CB1R, activity in words (hCB1R [7])	CB1R-dependent inhibition of FSK-stimulated cAMP, activity in words (hCB1R [6])	further results
COC(=O)[C@H](Cc1ccccc1)NC(=O)c1cn(CCCCCF)c2ccccc12 [5-fluoro MPP-PICA]	did not display a bias	12 nM	110 ± 13%	1200 nM	59 ± 18 %	630 nM	82 ± 1.9%	not different with regard to potency relative to the reference agonist CP55,940, and produced supramaximal EMax responses	significantly less affinity	540 nM	89 ± 6.3 %	6.4 nM	92 ± 6.8%	minimally active at CB1R but agonists at CB2R	> 10000 nM	170 ± 9.8%	–	–	–	–	Affinity for CB1R compared with CP55,940, in words (hCB1R [3]): significantly less affinity
Cc1ccc(C(=O)c2cn(CCCCCCl)c3ccccc23)c2ccccc12 [MAM2201 N-(5-chloropentyl) analog]	obligate cAMP-biased ligands	580 nM	120 ± 25%	10 nM	5.3 ± 3.0%	> 10000 nM	5.5 ± 1.9%	inactive in βarrestin2	significantly less affinity	> 10000 nM	40 ± 3.8 %	2.8 nM	98 ± 8.7%	–	> 10000 nM	17 ± 2.7%	greater affinity at CB1R relative to CB2R	more potent at CB1R relative to CB2R	Inactive at βarrestin2	–	βarrestin2 recruitment to CB2R, activity in words (hCB2R [4]; listed as MAM-2201 N-(5-chloropentyl) analog): Inactive at βarrestin2
CCCCCn1cc(C(=O)c2ccc(CCC)c3ccccc23)c2ccccc21 [JWH 182]	obligate cAMP-biased ligands	25 nM	120 ± 11%	0.77 nM	17 ± 2.2%	> 10000 nM	13 ± 1.8%	inactive in βarrestin2; also recorded: Inactive at βarrestin2	–	6.2 nM	21 ± 1.7 %	24 nM	78 ± 9.4%	inactive at CB2R but an agonist at CB1R	1600 nM	110 ± 9.2%	–	–	equipotent, but produced supramaximal EMax responses	–	CB1R versus CB2R selectivity, cAMP inhibition efficacy (hCB1R [6]; CB1R vs CB2R): greater efficacy at CB2R than CB1R
N#CCCCCn1cc(C(=O)c2cccc3ccccc23)c2ccccc21 [AM 2232]	significant bias toward the inhibition of cAMP	1.7 nM	86 ± 1.9%	0.31 nM	66 ± 3.6 %	130 nM	130 ± 19%	greater potency and produced supramaximal EMax responses	significantly less affinity	600 nM	73 ± 6.2 %	190 nM	100 ± 9.3%	–	> 10000 nM	68 ± 1.6%	greater affinity at CB1R relative to CB2R	more potent at CB2R relative to CB1R	–	significantly lower potency relative to CP55940, but retained full (i.e., 100%) efficacy	–
CCCCCn1c2ccccc2c2cc(C(=O)c3cccc4ccccc34)ccc21 [EG 018]	significant bias toward the inhibition of cAMP	–	85 ± 17%	–	68 ± 6.1 %	–	10 ± 1.9%	–	significantly greater affinity	1.9 nM	53 ± 4.0 %	–	104 ± 18%	–	–	5.2 ± 0.54%	–	–	Inactive at βarrestin2	significantly lower potency relative to CP55940, but retained full (i.e., 100%) efficacy	EC50 (hCB2R [2]; CHO hCB2R, 10 µM FSK, 90 min, value with 95% CI, read-out: CB2R cAMP Inhibition EC50): 51 nM; EC50 (hCB2R [4]; CHO hCB2R, 90 min, value with 95% CI, read-out: CB2R βarrestin2 recruitment EC50): 770 nM
